This is an account of results in PMC2810320 (Journal of the American Chemical Society, 2010).

Assay [1] concerns the target T1, porcine bc1 complex (Sus scrofa, UniProt P24964). The assay is described as follows: Succinate-cytochrome c reductase. The format is biochemical. The note with it: for ΔG ΔGexp.: ΔGexp. = −RTlnKi.
The target of assay [2] is T1, porcine bc1 complex. The assay is described as follows: Ubiquinol-cytochrome c reductase. Format: biochemical.
Where [3] appears, read: DBH2 and cytochrome c as substrates, pH 6.5, 750 µM lauryl maltoside.

T1 sequence (P24964 whole entry, one chain of several): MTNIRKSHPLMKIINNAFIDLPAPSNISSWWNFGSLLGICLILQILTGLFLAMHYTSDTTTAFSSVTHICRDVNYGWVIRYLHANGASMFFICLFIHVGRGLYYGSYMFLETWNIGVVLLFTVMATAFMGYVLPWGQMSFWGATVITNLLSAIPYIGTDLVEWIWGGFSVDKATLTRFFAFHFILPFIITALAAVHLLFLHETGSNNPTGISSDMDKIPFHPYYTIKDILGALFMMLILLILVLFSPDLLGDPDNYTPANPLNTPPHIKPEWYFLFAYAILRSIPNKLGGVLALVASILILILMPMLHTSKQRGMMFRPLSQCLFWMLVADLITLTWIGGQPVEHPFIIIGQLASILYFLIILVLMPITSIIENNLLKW

As to `CO/C=C(/C(=O)OC)c1ccccc1Oc1cc(Oc2ccccc2C#N)ncn1` [AZ, azoxystrobin, reference compound], the “ΔG ΔGexp.” value on porcine bc1 complex [1] was -8.92 kcal/mol.
On the same count and under the same terms, then `CO/C=C(/C(=O)OC)c1ccccc1COc1cc(-c2ccccc2OC)nn1C` [Compound 6a], with -10.29 kcal/mol.
For the molecule `CO/C=C(/C(=O)OC)c1ccccc1COc1cc(-c2ccccc2OC(=O)c2ccc(F)cc2)nn1C` [Compound 6d], the “ΔG ΔGexp.” value on porcine bc1 complex [1] is -9.56 kcal/mol.
Same read-out and setting: as for `CO/C=C(/C(=O)OC)c1ccccc1COc1cc(-c2ccccc2O)nn1C` [Compound 5a], the figure is -12.19 kcal/mol; as for `CO/N=C(/C(=O)OC)c1ccccc1COc1ccccc1C` [KM, kresoxim-methyl, reference compound], -9.28 kcal/mol.
As to `COC(=O)N(OC)c1ccccc1COc1ccn(-c2ccc(Cl)cc2)n1` [PY, pyraclostrobin, reference compound], the “ΔG ΔGexp.” value at porcine bc1 complex [1] is -11.59 kcal/mol.
Regarding `CO/C=C(/C(=O)OC)c1ccccc1COc1cc(-c2ccccc2OCc2ccccc2)nn1C` [Compound 6c], the “ΔG ΔGexp.” value at porcine bc1 complex [1] is -10.79 kcal/mol.
For `CO/C=C(/C(=O)OC)c1ccccc1COc1cc(-c2cc(Cl)ccc2O)nn1C` [Compound 5c], the “type of inhibition with respect to substrate cytochrome c” value at porcine bc1 complex [1] (kobs independent of cytochrome c concentration, 5 nM 5c) was “non-competitive inhibitor”. Moreover, the kon on porcine bc1 complex [1] (pH 7.4, read-out: apparent rate constant A (association rate constant k+0)) is 6.31e+06 ± 360000 M⁻¹ s⁻¹. At porcine bc1 complex [1] (pH 7.4, read-out: apparent rate constant B (dissociation rate constant k−0)), the koff was 0.00358 s⁻¹. The “fold improved binding affinity compared to AZ” value at porcine bc1 complex [1] (ratio of Ki values, vs AZ) is “about 522 fold”. Further, on porcine bc1 complex [1], the “ΔG ΔGexp.” value was -12.63 kcal/mol. Further, the Ki (in general, the dissociation constant of the complex between target and ligand, obtained from inhibition or displacement) at porcine bc1 complex [2] came out at 2.6 ± 0.1 nM. Moreover, at porcine bc1 complex [2] (setting [3]), the “microscopic inhibition rate constant k+0” value is 1.85e+06 ± 30000 M⁻¹ s⁻¹ and the “microscopic inhibition rate constant k−0” value came out at 0.0048 ± 0.00018 s⁻¹. On porcine bc1 complex [2] (DBH2 assay Ki vs SCR assay Ki), the “Ki fold higher than that measured from succinate-cytochrome c reductase activity inhibition” value is “about 5 fold”. Besides, the “type of inhibition with respect to substrate ubiquinol” value at porcine bc1 complex [2] (varying DBH2 20–115 µM) is listed as “competitive inhibitor”.
Consider `CO/C=C(/C(=O)OC)c1ccccc1COc1cc(-c2cc(C)ccc2O)nn1C` [Compound 5b], for which the “ΔG ΔGexp.” value at porcine bc1 complex [1] was -11.62 kcal/mol.
Turning to `CO/C=C(/C(=O)OC)c1ccccc1COc1cc(-c2cc(C)ccc2OC)nn1C` [Compound 6b], the “ΔG ΔGexp.” value on porcine bc1 complex [1] was -10.52 kcal/mol.
Same read-out and setting: as for `CO/N=C(/C(=O)OC)c1ccccc1COc1cc(-c2ccccc2O)nn1C` [Compound 5d], the figure is -11.50 kcal/mol.
